Test results published in patent EP4793271A1, “NEUROPROTECTIVE AGENT” (National Center of Neurology and Psychiatry, priority 2023, dated 2025).

Experiments:
[1] = Pharmacokinetic evaluation after single iv and po administration to mice; type: in vivo, C57BL/6J male mice; settings: for AUC(0-inf) / AUC(0-t) / C0 / half-life / clearance / Vd / Cmax / Tmax: male, C57BL/6J, mouse, plasma; for clearance: read-out: CLtot (converted); for Vd: read-out: Vss; for volume of distribution: result in words
Description: The concentrations of compound 35 and its metabolites in plasma were measured, and oral absorbability (bioavailability) was evaluated. Systemic clearance was calculated for the iv administration, and pharmacokinetic features were determined.
The concentrations of compound 76 and its metabolites in plasma were measured, and oral absorbability (bioavailability) was evaluated. Systemic clearance was calculated for the iv administration, and pharmacokinetic features were determined.
The concentration of compound 105 in plasma was measured, and oral absorbability (bioavailability: BA) was evaluated. A half-life, the volume of distribution in a stationary state, and systemic clearance, and the like were calculated for the iv administration, and pharmacokinetic features were determined.

[2] = target: T1, nicotinamide phosphoribosyl transferase (NAMPT) (Homo sapiens, UniProt P43490); experiment: NAMPT activity measurement (NMN fluorescence detection); type: biochemical; settings: NAMPT recombinant protein; 10 µM Nam
T1 construct: purchased Medical & Biological Laboratories Co., Ltd. (MBL)
T1 sequence (P43490 whole entry, species assumed): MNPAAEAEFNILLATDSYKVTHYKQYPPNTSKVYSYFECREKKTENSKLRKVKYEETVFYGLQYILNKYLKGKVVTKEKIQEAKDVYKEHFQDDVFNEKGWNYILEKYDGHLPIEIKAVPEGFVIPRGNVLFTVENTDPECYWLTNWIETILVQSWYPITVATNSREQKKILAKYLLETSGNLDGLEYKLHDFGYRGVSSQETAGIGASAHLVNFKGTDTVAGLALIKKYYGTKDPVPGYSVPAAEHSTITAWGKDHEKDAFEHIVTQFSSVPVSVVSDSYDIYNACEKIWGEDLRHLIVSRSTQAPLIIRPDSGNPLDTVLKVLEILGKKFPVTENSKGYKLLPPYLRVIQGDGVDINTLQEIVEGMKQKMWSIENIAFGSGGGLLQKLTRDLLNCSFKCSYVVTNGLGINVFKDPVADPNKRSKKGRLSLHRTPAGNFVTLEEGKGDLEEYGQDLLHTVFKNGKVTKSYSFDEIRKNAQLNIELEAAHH
Method in brief: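 Recombinant NAMPT reacted with 10 µM Nam, 0.5 µM PRPP, 2 µM ATP in Tris pH 7.4 buffer with MgCl2, DTT, BSA; product NMN quantified by fluorescence (ex 421/em 480 nm) after derivatization with 2-acetylbenzofuran. Compounds at 3 nM–10 µM; control-normalized signal used for IC50.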

[3] = 1 mg/kg, iv 1 mg/5 ml/kg single dose
[4] = 10 mg/kg, po 10 mg/10 ml/kg single dose

O=C(NCCCOCCOCCCNC(=O)c1cccnc1)c1cccnc1 [compound 35] showed an AUC(0-inf) [1, 3] of 234 ng·h/mL, an AUC(0-t) [1, 3] of 228 ng·h/mL and a C0 [1, 3] of 1600 ng/mL. For the same molecule, the half-life [1, 3] was 1.9 h, the clearance [1, 3] was 71.4 mL/min/kg and the Vd [1, 3] was 1.57 L/kg. It also gave an AUC(0-inf) [1, 4] of 297 ng·h/mL, an AUC(0-t) [1, 4] of 293 ng·h/mL and a Cmax [1, 4] of 501 ng/mL. The Tmax [1, 4] was 0.25 h, the half-life [1, 4] was 1.89 h and the volume of distribution [1] was “large as compared with the amount of intercellular fluid”. The “Evaluation on NAMPT inhibitory” value [2] was “○”.
With CC(C)(C)C(=O)Nc1ccc(CNC(=O)c2cccnc2)cn1 [compound 76] the AUC(0-inf) [1, 3] was 1160 ng·h/mL, the AUC(0-t) [1, 3] was 1160 ng·h/mL and the C0 [1, 3] was 1940 ng/mL. For the same molecule, the half-life [1, 3] was 1.14 h, the clearance [1, 3] was 14.6 mL/min/kg and the Vd [1, 3] was 0.89 L/kg. For the same molecule, the AUC(0-inf) [1, 4] was 14200 ng·h/mL, the AUC(0-t) [1, 4] was 14100 ng·h/mL and the Cmax [1, 4] was 9850 ng/mL. The Tmax [1, 4] was 0.25 h, the half-life [1, 4] was 3.21 h and the BA ([1]; po 10 mg/10 ml/kg vs iv 1 mg/5 ml/kg, oral absorbability (bioavailability)) was 124%. The volume of distribution [1] was “large” and the “Evaluation on NAMPT inhibitory” value [2] was “○”.
In the case of O=C(NCc1ccc(NC(=O)c2ccccc2)nc1)c1cccnc1 [compound 105], the AUC(0-inf) [1, 3] is reported as 408 ng·h/mL, the AUC(0-t) [1, 3] is reported as 391 ng·h/mL and the C0 [1, 3] is reported as 1050 ng/mL. It also gave a half-life [1, 3] of 2.81 h, a clearance [1, 3] of 40.9 mL/min/kg and a Vd [1, 3] of 3.14 L/kg. It also gave an AUC(0-inf) [1, 4] of 2420 ng·h/mL, an AUC(0-t) [1, 4] of 2410 ng·h/mL and a Cmax [1, 4] of 2520 ng/mL. The Tmax [1, 4] was 0.25 h, the half-life [1, 4] was 4.13 h and the volume of distribution [1] was “large as compared with the amount of intercellular fluid”. For the same molecule, the “Evaluation on NAMPT inhibitory” value [2] was “○”.
